Source: PMC5482804, “YvcK, a protein required for cell wall integrity and optimal carbon source utilization, binds uridine diphosphate-sugars” (Scientific Reports, 2017)

Experiments:
YvcK [1] = target: T1, YvcK (Bacillus subtilis, UniProt O06974); test: thermal shift assay (SYPRO Orange) with apparent KD; limited trypsin proteolysis; format: binding
T1 construct: gene mgfK; His6-tagged YvcK

YvcK [2] = target: T1, YvcK; test: thermal shift assay (SYPRO Orange) with apparent KD; format: binding

T1 sequence (O06974 whole entry): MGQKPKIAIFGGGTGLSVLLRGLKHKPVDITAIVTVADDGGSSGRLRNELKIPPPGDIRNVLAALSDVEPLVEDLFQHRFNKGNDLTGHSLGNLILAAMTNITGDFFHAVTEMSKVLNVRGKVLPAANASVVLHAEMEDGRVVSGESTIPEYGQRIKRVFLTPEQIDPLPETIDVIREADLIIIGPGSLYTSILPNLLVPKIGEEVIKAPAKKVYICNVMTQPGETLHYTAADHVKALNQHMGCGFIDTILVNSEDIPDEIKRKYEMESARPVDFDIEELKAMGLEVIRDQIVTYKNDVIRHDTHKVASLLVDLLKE

Kd (YvcK [1]) | Kd (YvcK [2]) | SMILES
0.41 ± 0.24 mM | – | CC(=O)N[C@H]1[C@@H](OP(=O)(O)OP(=O)(O)OC[C@H]2O[C@@H](n3ccc(=O)[nH]c3=O)[C@H](O)[C@@H]2O)O[C@H](CO)[C@@H](O)[C@@H]1O [UDP-GlcNAc]
– | 6.21 ± 0.62 mM | O=c1ccn([C@@H]2O[C@H](COP(=O)(O)OP(=O)(O)O)[C@@H](O)[C@H]2O)c(=O)[nH]1 [UDP]
